{"source": "patent US8877707B2", "about": "“Inhibitors of HCV NS5A” (Presidio Pharmaceuticals, Inc., priority 2010, dated 2014)", "data": [{"tested_on": "HCV genotype 1b replicon in Huh 7 cells", "experiment": "HCV replicon assay (1b_Huh-Luc/Neo-ET cell line, luciferase readout)", "type": "cell-based", "settings": "Hepatitis C virus; Table 1; genotype 1b replicon, Huh 7 cells, 72 h, luciferase; read-out: Inhibition of HCV genotype 1b", "in_short": "(§1)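 Replicon level was read as luciferase signal after 72 h compound exposure, triplicate wells, starting the day after cells were plated. Cell line: 1b_Huh-Luc/Neo-ET. Values normalised to control as percent, and EC50 fitted with a variable-slope sigmoid; determinations repeated.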", "units": {"EC50": "nM"}, "values": [{"molecule": "COC(=O)N[C@@H](C(=O)N1CCC[C@H]1c1nc(-c2ccc3c(=O)n(-c4ccc(-c5cnc([C@@H]6CCCN6C(=O)[C@H](NC(=O)OC)c6ccccc6)[nH]5)cc4)ccc3c2)c[nH]1)c1ccccc1", "note": "[compound 288]", "EC50": "< 1"}, {"molecule": "COC(=O)N[C@@H](C(=O)N1CCC[C@H]1c1nc(-c2ccc3c(c2)CCN(c2ccc(-c4cnc([C@@H]5CCCN5C(=O)[C@H](NC(=O)OC)c5ccccc5)[nH]4)cc2)C3=O)c[nH]1)c1ccccc1", "note": "[compound 289]", "EC50": "< 1"}, {"molecule": "COC(=O)N[C@H](C(=O)N1CCC[C@H]1c1ncc(-c2ccc(N3Cc4cc(-c5cnc([C@@H]6CCCN6C(=O)[C@@H](NC(=O)OC)C(C)C)[nH]5)ccc4C3=O)cc2)[nH]1)C(C)C", "note": "[compound 290]", "EC50": "< 1"}, {"molecule": "COC(=O)N[C@H](C(=O)N1CCC[C@H]1c1nc(C2CNc3cc(-c4ccc(-c5cnc([C@@H]6CCCN6C(=O)[C@H](NC(=O)OC6CCOCC6)c6ccccc6)[nH]5)cc4)ccc3C2)c[nH]1)C(C)C", "note": "(some centres unmarked) [compound 291]", "EC50": "< 1"}, {"molecule": "COC(=O)N[C@H](C(=O)N1CCC[C@H]1c1ncc(-c2ccc3nc(-c4ccc5c(ccc6nc([C@@H]7CCCN7C(=O)[C@@H](NC(=O)OC)C(C)C)[nH]c65)c4)ccc3c2)[nH]1)C(C)C", "note": "[compound 296]", "EC50": "< 1"}, {"molecule": "COC(=O)N[C@H](C(=O)N1CCC[C@H]1c1nc2ccc3cc(-c4ccc5cc(-c6cnc([C@@H]7CCCN7C(=O)[C@@H](NC(=O)OC)C7CCOCC7)[nH]6)ccc5n4)ccc3c2[nH]1)C(C)C", "note": "[compound 297]", "EC50": "< 1"}, {"molecule": "COC(=O)N[C@H](C(=O)N1CCC[C@H]1c1nc2ccc3cc(-c4ccc5cc(-c6cnc([C@@H]7CCCN7C(=O)[C@H](NC(=O)OC)c7ccccc7)[nH]6)ccc5n4)ccc3c2[nH]1)C(C)C", "note": "[compound 298]", "EC50": "< 1"}, {"molecule": "COC(=O)N[C@H](C(=O)N1CCC[C@H]1c1nc2ccc3cc(-c4ccc5cc(-c6cnc([C@@H]7CCCN7C(=O)[C@H](NC(=O)OC7CCOCC7)c7ccccc7)[nH]6)ccc5n4)ccc3c2[nH]1)C(C)C", "note": "[compound 299]", "EC50": "< 1"}]}, {"tested_on": "HCV genotype 1b replicon in Huh 7 cells", "experiment": "HCV replicon assay (1b_Huh-Luc/Neo-ET cell line, luciferase readout)", "type": "cell-based", "settings": "Hepatitis C virus; Table 2; genotype 1b replicon, Huh 7 cells, 72 h, luciferase; read-out: Inhibition of HCV genotype 1b", "in_short": "as §1", "units": {"EC50": "nM"}, "values": [{"molecule": "COC(=O)N[C@H](C(=O)N[C@@H](C)c1ncc(-c2ccc3cc(-c4ccc(-c5cnc([C@@H]6CCCN6C(=O)[C@@H](NC(=O)OC)C(C)C)[nH]5)cc4)ccc3c2)[nH]1)C(C)C", "note": "[compound 304]", "EC50": "< 1"}, {"molecule": "COC(=O)N[C@H](C(=O)N1CCC[C@H]1c1ncc(-c2ccc(-c3ccc4cc(-c5cnc([C@@H]6C[C@@H](O)CN6C(=O)[C@@H](NC(=O)OC)C(C)C)[nH]5)ccc4c3)cc2)[nH]1)C(C)C", "note": "[compound 305]", "EC50": "< 1"}, {"molecule": "COC(=O)N[C@H](C(=O)N1CC[C@H](O)[C@H]1c1ncc(-c2ccc3cc(-c4ccc(-c5cnc([C@@H]6CCCN6C(=O)[C@@H](NC(=O)OC)C(C)C)[nH]5)cc4)ccc3c2)[nH]1)C(C)C", "note": "[compound 306]", "EC50": "< 1"}, {"molecule": "COC(=O)N[C@H](C(=O)N1CCCC[C@H]1c1ncc(-c2ccc3cc(-c4ccc(-c5cnc([C@@H]6CCCN6C(=O)[C@@H](NC(=O)OC)C(C)C)[nH]5)cc4)ccc3c2)[nH]1)C(C)C", "note": "[compound 307]", "EC50": "< 1"}, {"molecule": "COC(=O)N[C@H](C(=O)N1CCC[C@H]1c1ncc(-c2ccc(-c3ccc4cc(-c5cnc([C@@H]6CSCCN6C(=O)[C@@H](NC(=O)OC)C(C)C)[nH]5)ccc4c3)cc2)[nH]1)C(C)C", "note": "[compound 308]", "EC50": "< 1"}, {"molecule": "COC(=O)N[C@H](C(=O)N1CCC[C@H]1c1ncc(-c2ccc(-c3ccc4cc(-c5cnc([C@@H]6CCCN6C(=O)[C@@H](NC(=O)OC)C(C)C)[nH]5)ccc4c3)c(C#N)c2)[nH]1)C(C)C", "note": "[compound 309]", "EC50": "< 1"}, {"molecule": "COC(=O)N[C@H](C(=O)N1CCC[C@H]1c1ncc(-c2ccc(-c3ccc4cc(-c5cnc([C@@H]6CCCN6C(=O)[C@@H](NC(=O)OC)C(C)C)[nH]5)ccc4c3)c(C(F)(F)F)c2)[nH]1)C(C)C", "note": "[compound 310]", "EC50": "< 1"}, {"molecule": "COC(=O)N[C@H](C(=O)N1CCC[C@H]1c1ncc(-c2ccc3cc(-c4ccc(-c5cnc([C@@H]6CCCN6C(=O)[C@@H](NC(=O)OC)C(C)C)[nH]5)nn4)ccc3c2)[nH]1)C(C)C", "note": "[compound 312]", "EC50": "< 1"}, {"molecule": "COC(=O)N[C@H](C(=O)N1CCC[C@H]1c1ncc(-c2ccc3cc(-c4ccc(-c5cnc([C@@H]6CCCN6C(=O)[C@@H](NC(=O)OC)C6CCOCC6)[nH]5)nn4)ccc3c2)[nH]1)C1CCOCC1", "note": "[compound 314]", "EC50": "< 1"}, {"molecule": "COC(=O)N[C@H](C(=O)N1CCC[C@H]1c1ncc(-c2ccc3cc(-c4ccc(-c5cnc([C@@H]6CCCN6C(=O)[C@H](NC(=O)OC)c6ccccc6)[nH]5)nn4)ccc3c2)[nH]1)C1CCOCC1", "note": "[compound 315]", "EC50": "< 1"}, {"molecule": "COC[C@H](NC(=O)OC)C(=O)N1CCC[C@H]1c1ncc(-c2ccc3cc(-c4ccc(-c5cnc([C@@H]6CCCN6C(=O)[C@H](NC(=O)OC)c6ccccc6)[nH]5)cc4)ccc3c2)[nH]1", "note": "[compound 316]", "EC50": "< 1"}, {"molecule": "COC(=O)N[C@@H](C)C(=O)N1CCC[C@H]1c1ncc(-c2ccc3cc(-c4ccc(-c5cnc([C@@H]6CCCN6C(=O)[C@H](NC(=O)OC)c6ccccc6)[nH]5)cc4)ccc3c2)[nH]1", "note": "[compound 319]", "EC50": "< 1"}, {"molecule": "COC(=O)NC(C(=O)N1CCC[C@H]1c1ncc(-c2ccc3cc(-c4ccc(-c5cnc([C@@H]6CCCN6C(=O)[C@H](NC(=O)OC)c6ccccc6)[nH]5)cc4)ccc3c2)[nH]1)[C@@H](C)O", "note": "(some centres unmarked) [compound 320]", "EC50": "< 1"}, {"molecule": "COC(=O)N[C@@H](C)C(=O)N1CCC[C@H]1c1ncc(-c2ccc3cc(-c4ccc(-c5cnc([C@@H]6COCCN6C(=O)[C@H](NC(=O)OC)c6ccccc6)[nH]5)cc4)ccc3c2)[nH]1", "note": "[compound 322]", "EC50": "< 1"}, {"molecule": "COC(=O)N[C@H](C(=O)N1CCC[C@H]1c1ncc(-c2ccc3cc(-c4ccc(-c5cnc([C@@H]6COCCN6C(=O)[C@H](NC(=O)OC)c6ccccc6)[nH]5)cc4)ccc3c2)[nH]1)[C@@H](C)OC", "note": "[compound 323]", "EC50": "< 1"}, {"molecule": "COC(=O)N[C@H](C(=O)N1CCC[C@H]1c1ncc(-c2ccc3cc(-c4ccc(-c5cnc([C@@H]6COCCN6C(=O)[C@H](NC(=O)OC)c6ccccc6)[nH]5)cc4)ccc3c2)[nH]1)[C@@H](C)O", "note": "[compound 324]", "EC50": "< 1"}, {"molecule": "COC(=O)N[C@@H](C)C(=O)N1CCOC[C@H]1c1ncc(-c2ccc3cc(-c4ccc(-c5cnc([C@@H]6CCCN6C(=O)[C@H](NC(=O)OC)c6ccccc6)[nH]5)cc4)ccc3c2)[nH]1", "note": "[compound 326]", "EC50": "< 1"}, {"molecule": "COC(=O)N[C@H](C(=O)N1CCOC[C@H]1c1ncc(-c2ccc3cc(-c4ccc(-c5cnc([C@@H]6CCCN6C(=O)[C@H](NC(=O)OC)c6ccccc6)[nH]5)cc4)ccc3c2)[nH]1)[C@@H](C)OC", "note": "[compound 327]", "EC50": "< 1"}, {"molecule": "COC(=O)N[C@H](C(=O)N[C@@H](C)c1ncc(-c2ccc3cc(-c4ccc(-c5cnc([C@@H]6CCCN6C(=O)[C@H](NC(=O)OC)c6ccccc6)[nH]5)cc4)ccc3c2)[nH]1)[C@@H](C)OC", "note": "[compound 329]", "EC50": "< 1"}, {"molecule": "COC(=O)N[C@H](C(=O)N1CCC[C@H]1c1ncc(-c2ccc3cc(-c4ccc(-c5cnc([C@@H]6CCCN6C(=O)[C@H](NC(=O)OC)c6ccccc6)[nH]5)cn4)ccc3c2)[nH]1)C1CCOCC1", "note": "[compound 337]", "EC50": "< 1"}, {"molecule": "COC(=O)N[C@@H](C)C(=O)N1CCC[C@H]1c1ncc(-c2ccc3cc(-c4ccc(-c5cnc([C@@H]6CCCN6C(=O)[C@H](NC(=O)OC)c6ccccc6)[nH]5)cn4)ccc3c2)[nH]1", "note": "[compound 338]", "EC50": "< 1"}, {"molecule": "CC[C@H](C)C(NC(=O)OC)C(=O)N1CCC[C@H]1c1nc2ccc(-c3ccc4cc(-c5cnc([C@@H]6CCCN6C(=O)[C@@H](NC(=O)OC)[C@@H](C)CC)[nH]5)ccc4c3)cc2[nH]1", "note": "(some centres unmarked) [compound 346]", "EC50": "< 1"}, {"molecule": "COC(=O)N[C@H](C(=O)N1CCC[C@H]1c1ncc(-c2ccc3cc(-c4ccc5nc([C@@H]6CCCN6C(=O)[C@@H](NC(=O)OC)C6CCCCC6)[nH]c5c4)ccc3c2)[nH]1)C1CCCCC1", "note": "[compound 348]", "EC50": "< 1"}, {"molecule": "COC(=O)N[C@H](C(=O)N1CCC[C@H]1c1ncc(-c2ccc3cc(-c4ccc5nc([C@@H]6COCCN6C(=O)[C@@H](NC(=O)OC)C6CCCC6)[nH]c5c4)ccc3c2)[nH]1)C1CCCC1", "note": "[compound 350]", "EC50": "< 1"}, {"molecule": "CCC(CC)[C@H](NC(=O)OC)C(=O)N1CCC[C@H]1c1ncc(-c2ccc3cc(-c4ccc5nc([C@@H]6COCCN6C(=O)[C@@H](NC(=O)OC)C(CC)CC)[nH]c5c4)ccc3c2)[nH]1", "note": "[compound 351]", "EC50": "< 1"}, {"molecule": "CC[C@@H](C)[C@H](NC(=O)OC)C(=O)N1CCC[C@H]1c1ncc(-c2ccc3cc(-c4ccc5nc([C@@H]6COCCN6C(=O)[C@@H](NC(=O)OC)[C@H](C)CC)[nH]c5c4)ccc3c2)[nH]1", "note": "[compound 352]", "EC50": "< 1"}, {"molecule": "CC[C@H](C)[C@H](NC(=O)OC)C(=O)N1CCC[C@H]1c1ncc(-c2ccc3cc(-c4ccc5nc([C@@H]6COCCN6C(=O)[C@@H](NC(=O)OC)[C@@H](C)CC)[nH]c5c4)ccc3c2)[nH]1", "note": "[compound 353]", "EC50": "< 1"}, {"molecule": "COC(=O)N[C@H](C(=O)N1CCC[C@H]1c1ncc(-c2ccc3cc(-c4ccc5nc([C@@H]6COCCN6C(=O)[C@@H](NC(=O)OC)[C@@H](C)OC)[nH]c5c4)ccc3c2)[nH]1)[C@@H](C)OC", "note": "[compound 354]", "EC50": "< 1"}, {"molecule": "COC(=O)N[C@H](C(=O)N1CCC[C@H]1c1ncc(-c2ccc3cc(-c4ccc5nc([C@@H]6COCCN6C(=O)[C@@H](NC(=O)OC)[C@@H](C)O)[nH]c5c4)ccc3c2)[nH]1)[C@@H](C)O", "note": "[compound 355]", "EC50": "< 1"}, {"molecule": "COC(=O)N[C@H](C(=O)N1CCC[C@H]1c1ncc(-c2ccc3cc(-c4ccc5nc([C@@H]6COCCN6C(=O)[C@@H](NC(=O)OC)C6CC6)[nH]c5c4)ccc3c2)[nH]1)C1CC1", "note": "[compound 356]", "EC50": "< 1"}, {"molecule": "CC[C@H](NC(=O)OC)C(=O)N1CCC[C@H]1c1ncc(-c2ccc3cc(-c4ccc5nc([C@@H]6COCCN6C(=O)[C@H](CC)NC(=O)OC)[nH]c5c4)ccc3c2)[nH]1", "note": "[compound 357]", "EC50": "< 1"}, {"molecule": "COC(=O)N[C@@H](C)C(=O)N1CCC[C@H]1c1ncc(-c2ccc3cc(-c4ccc5nc([C@@H]6COCCN6C(=O)[C@H](C)NC(=O)OC)[nH]c5c4)ccc3c2)[nH]1", "note": "[compound 359]", "EC50": "< 1"}, {"molecule": "COC(=O)N[C@H](C(=O)N1CCC[C@H]1c1ncc(-c2ccc3cc(-c4ccc5nc([C@@H]6COCCN6C(=O)[C@@H](NC(=O)OC)C6CCCCC6)[nH]c5c4)ccc3c2)[nH]1)C1CCCCC1", "note": "[compound 361]", "EC50": "< 1"}]}]}
